Reference: ChEMBL document CHEMBL4825690, “Synthesis and biological evaluation of chalcone-polyamine conjugates as novel vectorized agents in colorectal and prostate cancer chemotherapy” (Eur J Med Chem, 2021)

How the values were obtained:
Type in all cases: functional, cell-based
[1] = system: PC-3; experiment: Antiproliferative activity against human PC3 cells assessed as reduction in cell viability incubated for 48 hr by MTT assay; conditions: PC-3, 48 h
[2] = system: HCT-116; experiment: Antiproliferative activity against human HCT116 cells assessed as reduction in cell viability incubated for 48 hr by MTT assay; conditions: HCT-116, 48 h
[3] = system: HT-29; experiment: Antiproliferative activity against human HT29 cells assessed as reduction in cell viability incubated for 48 hr by MTT assay; conditions: HT-29, 48 h
[4] = system: DU-145; experiment: Antiproliferative activity against human DU145 cells assessed as reduction in cell viability incubated for 48 hr by MTT assay; conditions: DU-145, 48 h

IC50 [1]	IC50 [2]	IC50 [3]	IC50 [4]	SMILES
32.6 µM	20.3 µM	31.8 µM	20.6 µM	COc1cc(C(=O)/C=C/c2ccc(OCCCNCCCCNCCCN)cc2)cc(OC)c1OC
14 µM	11.8 µM	> 40 µM	10.8 µM	COc1cc(C(=O)/C=C/c2ccc(OCCCNCCCNCCCCNCCCN)cc2)cc(OC)c1OC
20.1 µM	12.4 µM	20.2 µM	8.4 µM	COc1cc(C(=O)/C=C/c2ccc(OCCCNCCCCN)cc2)cc(OC)c1OC
20.4 µM	21.9 µM	13.7 µM	10.2 µM	COc1cc(C(=O)/C=C/c2ccc(OCCCNCCCN)cc2)cc(OC)c1OC
